Experiments:
Insulin receptor = Insulin receptor (Homo sapiens, UniProt P06213); assay: Protein Tyrosine Kinase, Insulin Receptor Eurofins-Panlabs enzyme assay; design: substrate with concentration 10 µg/mL […], incubation time 60 min, incubation temperature 25 °C
[1] = biological target: Sodium-dependent dopamine transporter (Homo sapiens, UniProt Q01959); assay: Inhibition of Transporter, Dopamine (DAT) at compound concentration of 10.0 uM in the Eurofins-Panlabs radioligand binding assay (Eurofins_assay_220320); design: ligand concentration 0.15 nM, non-specific ligand with concentration 10 uM Nomifensine, incubation time 3 h, incubation temperature 4 C
Chain of Sodium-dependent dopamine transporter (Q01959 whole entry): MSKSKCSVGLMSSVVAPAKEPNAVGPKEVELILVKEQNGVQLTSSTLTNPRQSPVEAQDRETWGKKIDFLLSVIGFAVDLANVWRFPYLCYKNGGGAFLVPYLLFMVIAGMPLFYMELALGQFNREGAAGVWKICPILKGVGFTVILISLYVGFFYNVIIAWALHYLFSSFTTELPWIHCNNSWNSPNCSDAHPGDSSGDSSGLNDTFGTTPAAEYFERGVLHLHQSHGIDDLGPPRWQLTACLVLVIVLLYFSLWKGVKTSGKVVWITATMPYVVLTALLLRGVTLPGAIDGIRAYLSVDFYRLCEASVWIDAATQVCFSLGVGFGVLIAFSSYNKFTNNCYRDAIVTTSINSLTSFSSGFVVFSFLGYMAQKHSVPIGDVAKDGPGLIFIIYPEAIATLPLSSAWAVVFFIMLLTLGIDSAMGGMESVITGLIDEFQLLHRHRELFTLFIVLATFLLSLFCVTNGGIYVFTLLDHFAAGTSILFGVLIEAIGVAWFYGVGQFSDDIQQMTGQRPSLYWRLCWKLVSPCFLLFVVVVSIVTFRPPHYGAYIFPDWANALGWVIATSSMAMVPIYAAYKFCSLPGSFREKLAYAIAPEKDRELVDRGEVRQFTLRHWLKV

[2] = biological target: Sodium-dependent serotonin transporter (Homo sapiens, UniProt P31645); assay: Transporter, Serotonin (5- Hydroxytryptamine) (SERT) Eurofins-Panlabs radioligand binding assay; design: ligand concentration 0.15 nM, non-specific ligand with concentration 10 µM Imipramine, incubation time 3 h, incubation temperature 4 °C
[3] = biological target: Galanin receptor type 1 (Homo sapiens) (UniProt P47211); assay: Galanin GAL1 Eurofins-Panlabs radioligand binding assay; conditions: Compound concentration 10.0 uM
Caspase-1 (Homo sapiens) = Caspase-1 (Homo sapiens) (UniProt P29466); assay: Inhibition of Peptidase, CASP1 (Caspase 1) at 10 µM in the Eurofins-Panlabs enzyme assay (Eurofins_assay_163000); conditions: Compound concentration 10.0 uM
[4] = biological target: C-C chemokine receptor type 1 (Homo sapiens) (UniProt P32246); assay: Chemokine CCR1 Eurofins-Panlabs radioligand binding assay; conditions: Compound concentration 10.0 uM
Chain of C-C chemokine receptor type 1 (Homo sapiens) (P32246 whole entry): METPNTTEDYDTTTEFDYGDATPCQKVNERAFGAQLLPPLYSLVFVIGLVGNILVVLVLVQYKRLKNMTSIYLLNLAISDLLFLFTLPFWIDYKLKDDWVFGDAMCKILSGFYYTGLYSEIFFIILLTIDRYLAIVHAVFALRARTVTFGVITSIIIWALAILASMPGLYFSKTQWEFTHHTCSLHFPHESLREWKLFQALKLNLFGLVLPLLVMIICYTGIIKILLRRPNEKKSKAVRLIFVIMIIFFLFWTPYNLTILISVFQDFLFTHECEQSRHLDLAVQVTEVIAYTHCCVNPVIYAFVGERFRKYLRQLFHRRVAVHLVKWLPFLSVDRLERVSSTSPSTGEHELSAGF

[5] = biological target: D(2) dopamine receptor (Homo sapiens) (UniProt P14416); conditions: Compound concentration 10.0 uM
[6] = biological target: Adenosine receptor A2a (Homo sapiens) (UniProt P29274); conditions: Compound concentration 10.0 uM
Chain of Adenosine receptor A2a (Homo sapiens) (P29274 whole entry): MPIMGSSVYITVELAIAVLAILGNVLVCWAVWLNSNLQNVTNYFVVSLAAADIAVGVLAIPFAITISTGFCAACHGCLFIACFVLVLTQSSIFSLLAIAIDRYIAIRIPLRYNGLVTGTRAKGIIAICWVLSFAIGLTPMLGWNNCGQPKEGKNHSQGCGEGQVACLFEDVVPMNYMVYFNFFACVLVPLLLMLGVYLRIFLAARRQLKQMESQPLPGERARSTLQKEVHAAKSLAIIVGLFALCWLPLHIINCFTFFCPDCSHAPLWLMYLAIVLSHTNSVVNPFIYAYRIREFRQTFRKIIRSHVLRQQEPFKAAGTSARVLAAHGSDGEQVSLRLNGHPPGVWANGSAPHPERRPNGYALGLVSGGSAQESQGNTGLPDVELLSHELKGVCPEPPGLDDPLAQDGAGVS

[7] = biological target: Synaptic vesicular amine transporter (Homo sapiens) (UniProt Q05940); conditions: Oryctolagus cuniculus
Chain of Synaptic vesicular amine transporter (Homo sapiens) (Q05940 whole entry): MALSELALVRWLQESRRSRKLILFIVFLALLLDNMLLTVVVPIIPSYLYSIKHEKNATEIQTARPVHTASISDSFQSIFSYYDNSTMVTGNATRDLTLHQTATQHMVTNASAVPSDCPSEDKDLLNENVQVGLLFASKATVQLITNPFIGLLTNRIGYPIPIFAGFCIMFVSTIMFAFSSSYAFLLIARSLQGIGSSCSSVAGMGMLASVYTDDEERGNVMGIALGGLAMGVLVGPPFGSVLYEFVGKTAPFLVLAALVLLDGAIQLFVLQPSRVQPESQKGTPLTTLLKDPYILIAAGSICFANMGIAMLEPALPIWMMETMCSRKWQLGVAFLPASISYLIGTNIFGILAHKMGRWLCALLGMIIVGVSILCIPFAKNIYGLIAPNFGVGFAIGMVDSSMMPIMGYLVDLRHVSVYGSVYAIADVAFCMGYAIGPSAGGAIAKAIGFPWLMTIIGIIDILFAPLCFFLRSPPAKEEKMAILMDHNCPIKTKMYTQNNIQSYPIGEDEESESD

[8] = biological target: Nociceptin receptor (Homo sapiens) (UniProt P41146); assay: Orphanin ORL1 Eurofins-Panlabs radioligand binding assay; conditions: Compound concentration 10.0 uM
Chain of Nociceptin receptor (Homo sapiens) (P41146 whole entry): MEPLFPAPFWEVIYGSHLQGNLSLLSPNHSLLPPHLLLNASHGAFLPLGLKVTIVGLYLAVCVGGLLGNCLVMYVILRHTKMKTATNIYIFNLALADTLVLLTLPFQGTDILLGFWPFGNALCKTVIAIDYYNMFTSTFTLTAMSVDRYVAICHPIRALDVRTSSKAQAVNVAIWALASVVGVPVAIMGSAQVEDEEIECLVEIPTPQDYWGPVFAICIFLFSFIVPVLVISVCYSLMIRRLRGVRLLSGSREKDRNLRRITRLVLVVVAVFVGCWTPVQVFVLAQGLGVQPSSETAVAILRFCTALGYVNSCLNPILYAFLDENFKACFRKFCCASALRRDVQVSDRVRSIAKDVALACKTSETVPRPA

Homo sapiens = species: Homo sapiens; assay: Inhibition of Nicotinic Acetylcholine at compound concentration of 10.0 uM in the Eurofins-Panlabs radioligand binding assay (Eurofins_assay_258590); format: protein-complex assay; conditions: Compound concentration 10.0 uM
[9] = biological target: Prostaglandin F2-alpha receptor (Homo sapiens) (UniProt P43088); assay: Prostanoid FP Eurofins-Panlabs radioligand binding assay; design: ligand concentration 0.95 nM; conditions: Compound concentration 10.0 uM
[10] = biological target: Peroxisome proliferator-activated receptor gamma (Homo sapiens) (UniProt P37231); assay: PPARgamma Eurofins-Panlabs radioligand binding assay; design: ligand concentration 5 nM, non-specific ligand with concentration 0.5 µM L-797773, incubation time 18 h, incubation temperature 15 °C; conditions: Compound concentration 10.0 uM
Chain of Peroxisome proliferator-activated receptor gamma (Homo sapiens) (P37231 whole entry): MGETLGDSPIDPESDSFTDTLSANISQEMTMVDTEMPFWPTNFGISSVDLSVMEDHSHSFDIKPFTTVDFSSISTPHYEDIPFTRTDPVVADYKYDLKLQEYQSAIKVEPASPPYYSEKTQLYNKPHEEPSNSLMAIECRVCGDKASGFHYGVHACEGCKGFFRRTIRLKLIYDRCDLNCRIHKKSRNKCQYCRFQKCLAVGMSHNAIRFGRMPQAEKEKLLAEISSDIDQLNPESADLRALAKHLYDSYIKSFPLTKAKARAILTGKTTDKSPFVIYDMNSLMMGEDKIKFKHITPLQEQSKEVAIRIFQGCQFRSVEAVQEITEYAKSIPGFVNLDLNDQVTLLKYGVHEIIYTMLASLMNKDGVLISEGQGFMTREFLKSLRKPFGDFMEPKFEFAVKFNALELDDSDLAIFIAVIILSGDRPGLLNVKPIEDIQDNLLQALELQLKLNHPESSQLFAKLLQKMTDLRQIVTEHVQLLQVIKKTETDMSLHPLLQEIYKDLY

Caspase-8 (Homo sapiens) = Caspase-8 (Homo sapiens) (UniProt Q14790); assay: Peptidase, CASP8 (Caspase 8) Eurofins-Panlabs enzyme assay; conditions: concentration not given here
Chain of Caspase-8 (Homo sapiens) (Q14790 217-374 limits assumed): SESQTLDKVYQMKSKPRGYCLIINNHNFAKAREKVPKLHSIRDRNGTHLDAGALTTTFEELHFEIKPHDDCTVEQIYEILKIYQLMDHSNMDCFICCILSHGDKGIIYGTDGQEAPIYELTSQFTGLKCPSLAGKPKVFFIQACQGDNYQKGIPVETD
Chain of Caspase-8 (Homo sapiens) (Q14790 385-479 limits assumed): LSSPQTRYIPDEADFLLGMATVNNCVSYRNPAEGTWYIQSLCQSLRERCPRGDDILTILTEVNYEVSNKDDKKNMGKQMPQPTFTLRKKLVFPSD

[11] = biological target: Substance-K receptor (Homo sapiens) (UniProt P21452); assay: Inhibition of Tachykinin NK2 at 10 µM in the Eurofins-Panlabs radioligand binding assay (Eurofins_assay_255600); design: ligand concentration 0.5 nM; conditions: Compound concentration 10.0 uM
Chain of Substance-K receptor (Homo sapiens) (P21452 whole entry): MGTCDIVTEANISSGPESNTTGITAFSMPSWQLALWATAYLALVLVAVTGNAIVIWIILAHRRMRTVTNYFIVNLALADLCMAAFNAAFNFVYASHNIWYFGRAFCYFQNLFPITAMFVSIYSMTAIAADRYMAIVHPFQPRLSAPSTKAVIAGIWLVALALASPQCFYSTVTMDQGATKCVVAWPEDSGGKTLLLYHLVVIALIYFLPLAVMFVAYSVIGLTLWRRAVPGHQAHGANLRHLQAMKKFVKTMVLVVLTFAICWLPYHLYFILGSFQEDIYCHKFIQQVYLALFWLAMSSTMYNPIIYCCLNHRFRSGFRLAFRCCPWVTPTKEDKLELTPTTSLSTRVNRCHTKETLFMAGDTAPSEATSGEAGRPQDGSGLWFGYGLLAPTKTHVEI

Rattus norvegicus = species: Rattus norvegicus; assay: Testosterone Eurofins-Panlabs radioligand binding assay; design: ligand concentration 1.5 nM; conditions: Compound concentration 10.0 uM

Chain of Insulin receptor (P06213 28-758 limits assumed): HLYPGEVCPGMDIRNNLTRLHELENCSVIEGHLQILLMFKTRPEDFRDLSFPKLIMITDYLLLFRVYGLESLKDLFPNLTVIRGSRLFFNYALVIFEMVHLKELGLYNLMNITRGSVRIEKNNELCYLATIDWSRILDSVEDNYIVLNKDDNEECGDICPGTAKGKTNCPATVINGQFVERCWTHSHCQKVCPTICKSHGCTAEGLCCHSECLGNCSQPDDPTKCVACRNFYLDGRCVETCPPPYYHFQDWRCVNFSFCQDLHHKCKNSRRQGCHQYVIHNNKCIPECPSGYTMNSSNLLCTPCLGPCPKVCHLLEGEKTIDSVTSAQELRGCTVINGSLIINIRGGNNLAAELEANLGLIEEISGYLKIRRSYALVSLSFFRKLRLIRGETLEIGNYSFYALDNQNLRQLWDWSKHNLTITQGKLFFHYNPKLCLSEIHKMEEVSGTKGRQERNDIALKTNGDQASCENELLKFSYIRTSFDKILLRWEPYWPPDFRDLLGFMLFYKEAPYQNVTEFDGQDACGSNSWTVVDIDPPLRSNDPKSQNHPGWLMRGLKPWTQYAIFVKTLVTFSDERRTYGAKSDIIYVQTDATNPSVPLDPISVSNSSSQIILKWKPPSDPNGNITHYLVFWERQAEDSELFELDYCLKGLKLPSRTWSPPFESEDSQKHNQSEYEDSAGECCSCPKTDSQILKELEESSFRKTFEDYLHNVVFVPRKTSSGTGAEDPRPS
Chain of Insulin receptor (P06213 763-1382 limits assumed): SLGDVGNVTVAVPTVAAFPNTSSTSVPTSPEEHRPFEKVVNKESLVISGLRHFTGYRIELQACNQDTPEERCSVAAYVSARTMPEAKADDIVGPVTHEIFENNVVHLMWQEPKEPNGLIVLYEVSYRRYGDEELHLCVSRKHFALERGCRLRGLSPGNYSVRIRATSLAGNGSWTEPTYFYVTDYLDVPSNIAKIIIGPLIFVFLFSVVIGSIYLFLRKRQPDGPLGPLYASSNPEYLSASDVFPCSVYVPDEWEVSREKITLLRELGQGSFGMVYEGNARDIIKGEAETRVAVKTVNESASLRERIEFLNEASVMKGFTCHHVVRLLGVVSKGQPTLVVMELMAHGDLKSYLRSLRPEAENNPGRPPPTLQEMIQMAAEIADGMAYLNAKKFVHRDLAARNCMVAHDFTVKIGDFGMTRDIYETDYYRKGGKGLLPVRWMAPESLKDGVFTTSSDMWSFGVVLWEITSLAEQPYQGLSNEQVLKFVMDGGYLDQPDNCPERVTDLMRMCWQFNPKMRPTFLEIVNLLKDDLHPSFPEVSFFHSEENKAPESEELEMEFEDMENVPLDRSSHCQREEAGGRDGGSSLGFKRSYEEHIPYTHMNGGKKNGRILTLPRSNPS

## O=C(O)c1cc(-c2ccc(C3CCNCC3)cc2)c2ccc(-c3ccc(C(F)(F)F)cc3)cc2c1 [PPTN]
Insulin receptor
  IC50: 4.31 µM
Insulin receptor; Compound concentration 0.01 uM
  inhibition: 1%
Insulin receptor; Compound concentration 0.1 uM
  inhibition: -10%
Insulin receptor; Compound concentration 1.0 uM
  inhibition: 14%
Insulin receptor; Compound concentration 10.0 uM
  inhibition: 75%
[1]
  IC50: 2.31 µM
  Ki: 1.83 µM
[2]
  IC50: 9.47 µM
  Ki: 5.03 µM
[2]; Compound concentration 0.01 uM
  inhibition: -7%
[2]; Compound concentration 0.1 uM
  inhibition: -9%
[2]; Compound concentration 1.0 uM
  inhibition: -6%
[2]; Compound concentration 10.0 uM
  inhibition: 58%
[3]
  inhibition: 19%
Caspase-1 (Homo sapiens)
  inhibition: -1%
[4]
  inhibition: -9%
[5]
  inhibition: 28%
[6]
  inhibition: 38%
[7]; Compound concentration 0.01 uM
  inhibition: -8%
[7]; Compound concentration 0.1 uM
  inhibition: 8%
[7]; Compound concentration 1.0 uM
  inhibition: 41%
[7]; Compound concentration 10.0 uM
  inhibition: 59%
[8]
  inhibition: 12%
Homo sapiens
  inhibition: 0%
[9]
  inhibition: 15%
[10]
  inhibition: 4%
Caspase-8 (Homo sapiens)
  inhibition: 7%
[11]
  inhibition: 26%
Rattus norvegicus
  inhibition: 26%
